{
  "source": "patent US6486161B1",
  "about": "“Use of rifamycin derivative for treating mastitis in a domestic animal” (priority 2000, dated 2002)",
  "system": "Staphylococcus aureus B83-1 strain (derived from Newbould 305)",
  "test": "Therapeutic test in bovine mammary glands with experimental mastitis",
  "type": "in vivo, Holstein dairy cow",
  "method": "As the rifamycin derivative (1), a compound A wherein R is methyl group, i. e. R≡ CH3, was examined for its therapeutic effect on bovine mastitis as follows.\nThe therapeutic test for infection in bovine mammary glands was carried out by inoculating […] of Staphylococcus [Staphylococcus aureus B83-1 strain (derived from Newbould 305)] into one mammary gland of a Holstein dairy cow (2-5 years old) to cause experimental mastitis.\nTo one mammary gland of each cow in a treated group, the compound A used in the present invention was administered (infused through the lactiferous duct) in an amount of 50 mg in 10 ml of benzyl alcohol per day successively for two days, twenty-one days after the infection. To one mammary gland of each cow in a control group, benzyl alcohol was administered in an amount of 10 ml per day in the same manner as in the treated group. The therapeutic effect of the compound A was examined by counting colony forming units (CFUs) of Staphylococcus in 1 ml of milk obtained from a cow subjected to the test. Comparing the above two groups, the therapeutic effect of the compound A on bovine mastitis was evaluated.\nStaphylococcus was inoculated into forty-four mammary glands of eleven cows. Twenty-one days later, the number of mammary glands wherein Staphylococcus was separated from milk, i.e. number of mammary glands with mastitis, was counted. […]",
  "data": [
    {"smiles": "COC1/C=C/OC2(C)Oc3c(C)c(O)c4c(=O)c(c5oc6cc(N7CCN(C)CC7)cc(O)c6nc-5c4c3C2=O)NC(=O)/C(C)=C\\C=C\\C(C)C(O)C(C)C(O)C(C)C(OC(C)=O)C1C", "note": "(centres unmarked) [R = methyl]", "values": [
      {"measurement": "curing ratio", "setting": "cow, 50 mg per day for two days infused through the lactiferous duct, twenty-one days after infection", "value": 64, "unit": "%"},
      {"measurement": "mammary glands negative (at most ten CFU per ml milk) in all the examined days", "setting": "of twenty-two treated mammary glands, 50 mg in 10 ml benzyl alcohol per day for two days via lactiferous duct, 7-28 days after administration", "value": "fourteen"}
    ]}
  ]
}
